Measurements reported in article PMC12432858, “Longitudinal imaging of therapeutic enzyme expression after gene therapy for Fabry disease using positron emission tomography and the radiotracer [^18F]AGAL” (Molecular Therapy, 2024).
pKd: −log10 of the molar value.

Target: T1, human α-galactosidase A (GLA; α-Gal A) (Homo sapiens, UniProt P06280)
T1 construct: heart tissue cryosections; no tag stated
T1 sequence (P06280 32-429): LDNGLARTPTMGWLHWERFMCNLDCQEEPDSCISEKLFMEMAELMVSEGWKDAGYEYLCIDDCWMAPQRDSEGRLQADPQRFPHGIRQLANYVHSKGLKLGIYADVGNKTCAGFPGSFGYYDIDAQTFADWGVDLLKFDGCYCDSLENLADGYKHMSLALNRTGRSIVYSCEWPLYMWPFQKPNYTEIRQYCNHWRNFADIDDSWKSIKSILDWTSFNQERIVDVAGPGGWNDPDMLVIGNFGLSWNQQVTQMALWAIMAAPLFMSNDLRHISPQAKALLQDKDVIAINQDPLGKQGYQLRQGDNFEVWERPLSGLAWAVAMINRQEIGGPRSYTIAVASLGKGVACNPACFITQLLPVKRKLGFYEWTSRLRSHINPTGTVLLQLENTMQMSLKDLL
Experiment: saturation autoradiography on heart sections, one-site specific binding fit
Details: pH 5.0 McIlvaine buffer, 23 °C, 60 min; nonspecific binding defined with [19F]AGAL; active site; covalent (proposed); labelled compound; GLA in tissue sections of AAVGLA-treated Gla knockout mice

- pKd: ~7.70
SMILES: O=C(CCCCCCCn1cc(CCCF)nn1)N1C2C(O)C(O)C(O)C(CO)C21 (stereo not shown) [[^18F]AGAL]
